Source: patent US8940756B2, “Dihydronaphthyridines and related compounds useful as kinase inhibitors for the treatment of proliferative diseases” (Deciphera Pharmaceuticals, Inc., priority 2012, dated 2015)

Legend:
[1] = biological target: Phospho-KIT (Tyr719) in GIST48 cells (Homo sapiens, UniProt P10721); experiment: GIST48 KIT Western Blot; format: cell-based; conditions: 4 hours, read-out: pKIT suppression by western blot analysi GIST48
Description: (§1) GIST48, GIST430, and GIST882 cells were obtained from J. Fletcher (Brigham and Women's Hospital, Boston, Mass.). GIST T1 cells were obtained from B. Rubin (Cleveland Clinic, Cleveland, Ohio) and Professor Takahiro Taguchi (Kochi Medical School, Nankoku, Kochi, Japan). […] GIST430 cells were grown in Ham's F10 medium supplemented with 15% characterized fetal bovine serum (Invitrogen, Carlsbad, Calif.), 30 mg/L bovine pituitary extract (BD Biosciences, San Jose, Calif.), 0.5% Mito+ serum extender (BD Biosciences, San Jose, Calif.), 1 unit/mL penicillin G, 1 μg/ml streptomycin, and 0.29 mg/mL L-glutamine at 37° C., 5% CO2, 95% humidity. GIST T1 cells were grown in DMEM medium supplemented with 10% characterized fetal bovine serum (Invitrogen, Carlsbad, Calif.), 1 unit/mL penicillin G, 1 ng/ml streptomycin, and 0.29 mg/mL L-glutamine at 37° C., 5% CO2, and 95% humidity. Cells were allowed to expand until reaching 70-95% confluence at which point they were subcultured or harvested for assay use.
(§2) Two hundred fifty thousand cells were added per well in a 24-well tissue-culture treated plate. Cells were then incubated overnight at 37° C., 5% CO2, 95% humidity. Medium was aspirated, cells were washed with PBS, and serum-free RPMI1640 medium was added. A serial dilution of test compound was added to plates containing cells and plates were incubated for 4 hours at 37° C., 5% CO2, 95% humidity. Cells were washed with PBS, then lysed. Cell lysates were separated by SDS-PAGE and transferred to PVDF. Phospho-KIT (Tyr719) was detected using an antibody from Cell Signaling Technology (Beverly, Mass.), ECL Plus detection reagent (GE Healthcare, Piscataway, N.J.) and a Molecular Devices Storm 840 phosphorimager in fluorescence mode. Blots were stripped and probed for total KIT using an antibody from Santa Cruz Biotech (Santa Cruz, Calif.). IC50 values were calculated using Prism software (Graphpad, San Diego, Calif.).

[2] = biological target: Phospho-KIT (Tyr719) in GIST430 cells (Homo sapiens, UniProt P10721); experiment: GIST430 KIT Western Blot; format: cell-based; conditions: 4 hours, read-out: pKIT suppression by western blot analysi GIST430
Description: as §1
as §2, with “One” for “Two”, “Ham's F10” for “RPMI1640”

Phospho-KIT (Tyr719) in GIST430 cells, sequence (P10721 with tags, fused parts or gaps DEL560-576/V654A, form open): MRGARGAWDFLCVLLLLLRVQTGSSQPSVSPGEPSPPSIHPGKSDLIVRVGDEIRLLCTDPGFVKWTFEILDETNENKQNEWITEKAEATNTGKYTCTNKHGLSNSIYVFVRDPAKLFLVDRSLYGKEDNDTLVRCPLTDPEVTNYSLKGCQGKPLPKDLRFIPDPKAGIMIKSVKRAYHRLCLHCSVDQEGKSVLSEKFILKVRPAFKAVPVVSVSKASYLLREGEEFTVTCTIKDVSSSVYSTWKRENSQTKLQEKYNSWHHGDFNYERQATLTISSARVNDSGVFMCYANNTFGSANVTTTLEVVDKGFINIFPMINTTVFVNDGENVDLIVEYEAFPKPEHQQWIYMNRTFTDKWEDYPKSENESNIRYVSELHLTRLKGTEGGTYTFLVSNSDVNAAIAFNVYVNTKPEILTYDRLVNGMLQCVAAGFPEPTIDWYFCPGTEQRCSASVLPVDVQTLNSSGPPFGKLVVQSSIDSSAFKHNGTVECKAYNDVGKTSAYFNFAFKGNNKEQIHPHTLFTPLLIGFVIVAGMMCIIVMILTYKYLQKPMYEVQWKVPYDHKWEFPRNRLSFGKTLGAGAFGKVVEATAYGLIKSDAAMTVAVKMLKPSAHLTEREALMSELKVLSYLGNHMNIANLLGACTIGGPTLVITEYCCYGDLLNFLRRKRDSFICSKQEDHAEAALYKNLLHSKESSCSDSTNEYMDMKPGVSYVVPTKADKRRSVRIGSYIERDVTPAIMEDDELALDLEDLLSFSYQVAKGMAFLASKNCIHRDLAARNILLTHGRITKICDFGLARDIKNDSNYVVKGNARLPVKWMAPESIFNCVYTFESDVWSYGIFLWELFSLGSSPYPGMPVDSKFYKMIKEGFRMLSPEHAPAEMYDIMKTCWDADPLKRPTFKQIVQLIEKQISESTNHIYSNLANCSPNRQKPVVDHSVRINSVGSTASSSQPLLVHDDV
Phospho-KIT (Tyr719) in GIST48 cells, sequence (P10721 whole entry V560D/D820A, form open): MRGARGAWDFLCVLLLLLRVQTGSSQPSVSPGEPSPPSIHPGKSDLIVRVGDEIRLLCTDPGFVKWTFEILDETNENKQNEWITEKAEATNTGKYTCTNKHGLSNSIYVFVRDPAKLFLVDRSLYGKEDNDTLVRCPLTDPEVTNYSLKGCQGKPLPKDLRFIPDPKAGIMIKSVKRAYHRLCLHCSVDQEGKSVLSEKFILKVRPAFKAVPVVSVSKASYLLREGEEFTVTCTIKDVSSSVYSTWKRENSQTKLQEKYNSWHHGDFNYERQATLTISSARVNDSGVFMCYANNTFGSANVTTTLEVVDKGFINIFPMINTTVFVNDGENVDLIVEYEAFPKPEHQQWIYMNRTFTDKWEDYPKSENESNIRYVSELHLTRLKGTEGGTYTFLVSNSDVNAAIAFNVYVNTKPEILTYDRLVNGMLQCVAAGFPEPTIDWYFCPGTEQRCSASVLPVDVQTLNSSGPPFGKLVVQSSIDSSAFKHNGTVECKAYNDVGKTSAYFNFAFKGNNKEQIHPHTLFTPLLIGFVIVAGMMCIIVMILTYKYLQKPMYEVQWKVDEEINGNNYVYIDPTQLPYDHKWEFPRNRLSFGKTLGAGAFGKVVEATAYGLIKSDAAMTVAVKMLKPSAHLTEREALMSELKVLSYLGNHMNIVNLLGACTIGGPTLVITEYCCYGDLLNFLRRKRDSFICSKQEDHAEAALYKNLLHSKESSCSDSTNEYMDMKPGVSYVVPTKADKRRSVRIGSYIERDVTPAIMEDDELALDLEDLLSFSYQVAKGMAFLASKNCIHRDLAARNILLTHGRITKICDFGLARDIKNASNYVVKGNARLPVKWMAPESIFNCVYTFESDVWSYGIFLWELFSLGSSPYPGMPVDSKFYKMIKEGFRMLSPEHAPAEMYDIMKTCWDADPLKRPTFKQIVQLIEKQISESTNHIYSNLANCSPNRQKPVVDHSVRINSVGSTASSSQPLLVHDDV

Row | IC50 [1] | IC50 [2] | Structure (SMILES)
1 | > 1000 nM | 10 to 100 nM | CCn1c(=O)c(-c2cc(NC(=O)Nc3cc(F)cc(F)c3)c(F)cc2C)cc2cnc(NC)cc21 [Example 60, 1-(3,5-difluorophenyl)-3-(5-(1-ethyl-7-(methylamino)-2-oxo-1,2-dihydro-1,6-naphthyridin-3-yl)-2-fluoro-4-methylphenyl)urea]
2 | 100 to 1000 nM | 10 to 100 nM | CCn1c(=O)c(-c2cc(NC(=O)Nc3cccc(F)c3)c(F)cc2C)cc2cnc(N)cc21 [Example 58, 1-(5-(7-amino-1-ethyl-2-oxo-1,2-dihydro-1,6-naphthyridin-3-yl)-2-fluoro-4-methylphenyl)-3-(3-fluorophenyl)urea]
3 | > 1000 nM | 10 to 100 nM | CCn1c(=O)c(-c2cc(NC(=O)Nc3ccccc3)c(F)cc2C)cc2cnc(NC(=O)N(C)C)cc21 [Example 101, 3-(1-ethyl-3-(4-fluoro-2-methyl-5-(3-phenylureido)phenyl)-2-oxo-1,2-dihydro-1,6-naphthyridin-7-yl)-1,1-dimethylurea]
4 | 10 to 100 nM | < 10 nM | CCn1c(=O)c(-c2cc(NC(=O)Nc3ccccc3)c(F)cc2Cl)cc2cnc(NC(=O)N(C)C)cc21 [Example 70, 3-(3-(2-chloro-4-fluoro-5-(3-phenylureido)phenyl)-1-ethyl-2-oxo-1,2-dihydro-1,6-naphthyridin-7-yl)-1,1-dimethylurea]
5 | 10 to 100 nM | 10 to 100 nM | CCn1c(=O)c(-c2cc(NC(=O)Nc3ccccc3)c(F)cc2Cl)cc2cnc(NC(=O)OC)cc21 [Example 73, methyl (3-(2-chloro-4-fluoro-5-(3-phenylureido)phenyl)-1-ethyl-2-oxo-1,2-dihydro-1,6-naphthyridin-7-yl)carbamate]
6 | 100 to 1000 nM | 10 to 100 nM | CCn1c(=O)c(-c2cc(NC(=O)Nc3ccccc3)c(F)cc2Br)cc2cnc(NCCOC)cc21 [Example 51, 1-(4-bromo-5-(1-ethyl-7-(2-methoxyethylamino)-2-oxo-1,2-dihydro-1,6-naphthyridin-3-yl)-2-fluorophenyl)-3-phenylurea]
7 | < 10 nM | < 10 nM | CCn1c(=O)c(-c2cc(NC(=O)Nc3cccc4ccccc34)c(F)cc2Cl)cc2cnc(NC)cc21 [Example 6, 1-(4-chloro-5-(1-ethyl-7-(methylamino)-2-oxo-1,2-dihydro-1,6-naphthyridin-3-yl)-2-fluorophenyl)-3-(naphthalen-1-yl)urea]
8 | 10 to 100 nM | < 10 nM | CCn1c(=O)c(-c2cc(NC(=O)Nc3cccc(F)c3)c(F)cc2C)cc2cnc(NC)cc21 [Example 44, 1-(5-(1-ethyl-7-(methylamino)-2-oxo-1,2-dihydro-1,6-naphthyridin-3-yl)-2-fluoro-4-methylphenyl)-3-(3-fluorophenyl)urea]
9 | 10 to 100 nM | 100 to 1000 nM | CCn1c(=O)c(-c2cc(NC(=O)Nc3ccc(F)c(CN4CCN(C)CC4)c3)c(F)cc2Cl)cc2cnc(NC)cc21 [Example 87]
10 | 100 to 1000 nM | < 10 nM | CCn1c(=O)c(-c2cc(NC(=O)Nc3cccc(F)c3)c(F)cc2Br)cc2cnc(NC)cc21 [Example 50, 1-(4-bromo-5-(1-ethyl-7-(methylamino)-2-oxo-1,2-dihydro-1,6-naphthyridin-3-yl)-2-fluorophenyl)-3-(3-fluorophenyl)urea]
11 | < 10 nM | < 10 nM | CCn1c(=O)c(-c2cc(NC(=O)Nc3cc(F)cc(F)c3)c(F)cc2Cl)cc2cnc(NC(C)=O)cc21 [Example 67, N-(3-(2-chloro-5-(3-(3,5-difluorophenyl)ureido)-4-fluorophenyl)-1-ethyl-2-oxo-1,2-dihydro-1,6-naphthyridin-7-yl)acetamide]
12 | 100 to 1000 nM | 10 to 100 nM | CCn1c(=O)c(-c2cc(NC(=O)Nc3cc(F)cc(F)c3)c(F)cc2C)cc2cnc(NC(=O)N(C)C)cc21 [Example 108, 3-(3-(5-(3-(3,5-difluorophenyl)ureido)-4-fluoro-2-methylphenyl)-1-ethyl-2-oxo-1,2-dihydro-1,6-naphthyridin-7-yl)-1,1-dimethylurea]
13 | 100 to 1000 nM | 10 to 100 nM | CCn1c(=O)c(-c2cc(NC(=O)Nc3cc(F)cc(F)c3)c(F)cc2F)cc2cnc(NC)cc21 [Example 63]
14 | > 1000 nM | 10 to 100 nM | CCn1c(=O)c(-c2cc(NC(=O)Nc3cc(F)ccc3F)c(F)cc2C)cc2cnc(NC)cc21 [Example 61, 1-(2,5-difluorophenyl)-3-(5-(1-ethyl-7-(methylamino)-2-oxo-1,2-dihydro-1,6-naphthyridin-3-yl)-2-fluoro-4-methylphenyl)urea]
15 | 100 to 1000 nM | 10 to 100 nM | CCn1c(=O)c(-c2cc(NC(=O)Nc3cccc(F)c3)c(F)cc2Cl)cc2cnc(NCCOC)cc21 [Example 28, 1-(4-chloro-5-(1-ethyl-7-(2-methoxyethylamino)-2-oxo-1,2-dihydro-1,6-naphthyridin-3-yl)-2-fluorophenyl)-3-(3-fluorophenyl)urea]
16 | 10 to 100 nM | 10 to 100 nM | CCn1c(=O)c(-c2cc(NC(=O)Nc3ccccc3)c(F)cc2Cl)cc2cnc(NC(C)=O)cc21 [Example 54, 1-(5-(7-acetamido-1-ethyl-2-oxo-1,2-dihydro-1,6-naphthyridin-3-yl)-4-chloro-2-fluorophenyl)-3-phenylurea]
17 | 10 to 100 nM | 10 to 100 nM | CNc1cc2c(cn1)cc(-c1cc(NC(=O)Nc3ccccc3)c(F)cc1Cl)c(=O)n2C(C)C [Example 22, 1-(4-chloro-2-fluoro-5-(1-isopropyl-7-(methylamino)-2-oxo-1,2-dihydro-1,6-naphthyridin-3-yl)phenyl)-3-phenylurea]
18 | < 10 nM | 10 to 100 nM | CNc1cc2c(cn1)cc(-c1cc(NC(=O)Nc3csc4ccccc34)c(F)cc1F)c(=O)n2C [Example 14, 1-(benzo[b]thiophen-3-yl)-3-(2,4-difluoro-5-(1-methyl-7-(methylamino)-2-oxo-1,2-dihydro-1,6-naphthyridin-3-yl)phenyl)urea]
